{
  "source": "PubChem BioAssay AID489011",
  "about": "(The Scripps Research Institute Molecular Screening Center, 2010)",
  "note": "Activity calls are given as the source filed them.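 The calls were made as follows: active = IC50 for blocking malaria parasite growth in red cells at or below 10 µM; inactive = the rest.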",
  "data": [
    {"tested_on": "P. falciparum 3D7 in RBCs, 3H-hypoxanthine incorporation, 48 h", "assay": "P. falciparum blood-stage growth inhibition potency, late-stage follow-up, M18AAP inhibitor project, cell-based, radiolabel, RBCs, powder samples (AID 489011)", "values": [
      {"smiles": "O=C(COc1ccccc1C(=O)N/N=C/c1ccc(O)c(O)c1)N/N=C/c1ccc(O)c(O)c1", "IC50": "6 µM"},
      {"smiles": "Cc1cc(C)n2c(=S)[nH]nc2n1", "IC50": "> 25 µM (inactive)"},
      {"smiles": "CCC(C)c1ccc(O)c(N)c1", "note": "(configuration not stated)", "IC50": "6 µM"},
      {"smiles": "Br/C(C=Nn1cnnc1)=C\\c1ccccc1", "IC50": "11 µM (inactive)"},
      {"smiles": "Oc1ccc(CCNc2c3ccccc3nc3ccccc23)cc1O", "IC50": "< 1.6 µM"},
      {"smiles": "Oc1ccc(-c2csc(-c3ccccc3)n2)cc1O", "IC50": "> 25 µM (inactive)"},
      {"smiles": "Cc1cc(C)cc(C(=O)n2cnnc2N)c1", "IC50": "7 µM"}
    ]}
  ]
}
